Our source for the EC50 and IC50 values is patent US12357603B2, “Acyl sulfonamides for treating cancer” (Bayer Aktiengesellschaft, priority 2019, dated 2025).

pIC50: −log10 of the molar value.

One assay deals with ZR-75-1 cells. Put plainly: Proliferation assay ZR-75-1 (Alamar Blue, 144 h). The assay is classed as cell-based. The following applies: Homo sapiens, ZR-75-1, 144 h, arithmetic mean, read-out: ZR75-1 proliferation assay, EC50 [M] (arithmetic mean). The gist of the method: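 Alamar Blue fluorescence (590 nm, 2 h reagent step) measured viability after 144 h compound exposure at 37 °C, 5% CO2. Compounds spanned 2.0×10E-5 to 2.0×10E-9 M in 9 dilutions at 0.2% DMSO, in triplicate, added 24 h after plating 3000 cells/well in RPMI 1640 plus 2.5% FBS.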
(In general: Resazurin is reduced to fluorescent resorufin, in cell work by metabolically active cells.)

Assay [1] deals with ESR1 transcription (luciferase signal in MVLN cells). The assay can be described thus: Repression of ESR1 transcription, luciferase reporter in MVLN cells. The assay is classed as cell-based. The conditions noted are these: Homo sapiens, MVLN, inhibition of luciferase signal in MVLN cells; arithmetic mean. The gist of the method: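 Luminescence from an ER-driven Vitellogenin A2 element–luciferase reporter was measured after 24 h of treatment of MVLN cells, in duplicate wells. Alamar Blue (2 h, 530/590 nm) served as a cell-density control.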

A further assay has as its system MDA-MB-436 cells. The assay can be described thus: Proliferation assay MDA-MB-436, negative control cell line (Alamar Blue, 144 h). The assay is classed as cell-based. The following applies: Homo sapiens, MDA-MB-436, 144 h, arithmetic mean. The gist of the method: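 Viability read as Alamar Blue fluorescence (590 nm, 2 h) after 144 h compound exposure at 37 °C, 5% CO2. Cells seeded at 3000 per well in 2.5% FBS DMEM/Ham's F12, dosed a day later over 2.0×10E-9–2.0×10E-5 M in 9 steps with 0.2% DMSO, in triplicate.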

The target in assay [2] is Recombinant human His-tagged Kat6a protein (amino acids 194-810) (Homo sapiens (Human), UniProt Q92794). Put plainly: Kat6a activity assay (TR-FRET, acetylation of biotinylated Histone-H4-derived peptide). It is filed as biochemical. The following applies: 60 mins at 22° C., read-out: KAT6A-DPF/HAT domain IC50 [mol/l] (arithmetic mean). In outline:
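TR-FRET read-out of H4 K8 acetylation, using anti-acetyl-K8 antibody and streptavidin acceptor, after anacardic acid stop; IC50 from four-parameter regression normalized to DMSO. Reaction: recombinant human Kat6a aa 194-810 (insect-cell derived), 220 nM H4 1-24 peptide, 600 nM acetyl-CoA, pH 8, 22 °C, 60 min, compounds 0.01-20 μM.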
In general terms: Time-resolved FRET reads energy transfer from a long-lived donor to a nearby acceptor.

In assay [3] the target is Recombinant human GST-tagged Kat6b protein (431-end). Put plainly: Kat6b activity assay (TR-FRET, acetylation of biotinylated Histone-H4-derived peptide). The assay is classed as biochemical. The following applies: 30 mins at 22° C., read-out: KAT6B activity assay IC50 [mol/l] (arithmetic mean).

Sequence of Recombinant human His-tagged Kat6a protein (amino acids 194-810) (Q92794 194-810): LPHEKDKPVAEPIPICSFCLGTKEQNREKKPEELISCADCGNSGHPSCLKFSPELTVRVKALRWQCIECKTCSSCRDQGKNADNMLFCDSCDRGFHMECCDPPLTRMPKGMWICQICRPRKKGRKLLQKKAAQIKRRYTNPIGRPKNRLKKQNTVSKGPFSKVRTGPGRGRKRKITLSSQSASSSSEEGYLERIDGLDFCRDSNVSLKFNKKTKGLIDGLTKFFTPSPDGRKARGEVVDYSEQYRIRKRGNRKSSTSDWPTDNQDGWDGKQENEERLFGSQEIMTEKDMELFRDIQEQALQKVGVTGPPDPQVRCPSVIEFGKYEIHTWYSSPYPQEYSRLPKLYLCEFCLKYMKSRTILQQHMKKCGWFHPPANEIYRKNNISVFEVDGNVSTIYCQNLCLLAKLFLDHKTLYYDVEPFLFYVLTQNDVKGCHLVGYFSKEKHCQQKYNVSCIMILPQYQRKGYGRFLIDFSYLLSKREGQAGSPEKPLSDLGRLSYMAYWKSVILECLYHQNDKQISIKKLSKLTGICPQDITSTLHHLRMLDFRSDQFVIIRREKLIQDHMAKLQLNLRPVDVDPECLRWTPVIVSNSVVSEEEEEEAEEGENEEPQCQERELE

As for `CCOc1cccnc1S(=O)(=O)NC(=O)c1cc2ccc(N(C)C)cc2o1` [Example 101, 6-(Dimethylamino)-N-(3-ethoxypyridine-2-sulfonyl)-1-benzofuran-2-carboxamide], the EC50 is 1.4e-06 M in the assay on ZR-75-1 cells and above 20000 nM in the assay on MDA-MB-436 cells. For the same compound, the IC50 – broadly, the midpoint of a concentration-inhibition curve – in assay [1] came to 1440 nM. Besides, the pIC50 was 6.30 in assay [2] and 6.21 in assay [3].
On the same counts, the results for `CCOc1ccc(I)cc1S(=O)(=O)NC(=O)c1cc2ccc(N(C)C)cc2o1` [Example 78, 6-(Dimethylamino)-N-(2-ethoxy-5-iodobenzene-1-sulfonyl)-1-benzofuran-2-carboxamide] are 2.79e-06 M, above 20000 nM, 153 nM, 7.49 and 7.06.
On the same counts, the results for `CCCOc1cccc(CC)c1S(=O)(=O)NC(=O)c1cc2ccc(N(C)C)cc2o1` [Example 119, 6-(Dimethylamino)-N-(2-ethyl-6-propoxybenzene-1-sulfonyl)-1-benzofuran-2-carboxamide] are 6.98e-07 M, above 20000 nM, 218 nM, 6.73 and 6.43.
In the same order, the values of `CN(C)c1ccc2cc(C(=O)NS(=O)(=O)c3ccccc3OC(C)(C)C)oc2c1` [Example 68, N-(2-tert-butoxybenzene-1-sulfonyl)-6-(dimethylamino)-1-benzofuran-2-carboxamide] are 8.44e-08 M, above 20000 nM, 51 nM, 7.16 and 7.07.
On to `CCOc1ccc(Br)cc1S(=O)(=O)NC(=O)c1cc2c(F)cc(N(C)C)cc2o1` [Example 113, N-(5-Bromo-2-ethoxybenzene-1-sulfonyl)-6-(dimethylamino)-4-fluoro-1-benzofuran-2-carboxamide], for which the figures for the EC50 in the assay with ZR-75-1 cells and with MDA-MB-436 cells were 1.02e-07 M and above 20000 nM, respectively. Also, it took 70.3 nM to reach half-maximal inhibition in assay [1] (IC50). The pIC50 in assay [2] and in assay [3] was 8.14 each time.
Take `CCOc1ccccc1S(=O)(=O)NC(=O)c1cc2c(F)cc(N(C)C)cc2o1` [Example 13, 6-(Dimethylamino)-N-(2-ethoxybenzene-1-sulfonyl)-4-fluoro-1-benzofuran-2-carboxamide]: the figures for the EC50 in the assay on ZR-75-1 cells and in the assay with MDA-MB-436 cells were 2.28e-08 M and above 20000 nM, respectively. Also, the midpoint of inhibition in assay [1], the IC50, lay at 16.7 nM. The pIC50 in assay [2] was 7.90; in assay [3] it was 7.94.
Consider `CN(C)c1ccc2cc(C(=O)NS(=O)(=O)c3c(F)cccc3OC3CCC3)oc2c1` [Example 142, N-[2-(Cyclobutyloxy)-6-fluorobenzene-1-sulfonyl]-6-(dimethylamino)-1-benzofuran-2-carboxamide], for which the EC50 in the assay with ZR-75-1 cells was 4.37e-07 M; in the assay on MDA-MB-436 cells, above 20000 nM. The compound further returned an IC50 in assay [1] of 166 nM. Further, the pIC50 in assay [2] was 6.86; in assay [3], 6.64.
Turning to `CN(C)c1ccc2cc(C(=O)NS(=O)(=O)c3ccccc3OC3CC3)oc2c1` [Example 65, N-[2-(Cyclopropyloxy)benzene-1-sulfonyl]-6-(dimethylamino)-1-benzofuran-2-carboxamide], the EC50 in the assay on ZR-75-1 cells is 4.44e-08 M; in the assay with MDA-MB-436 cells it was above 20000 nM. This compound returned an IC50 in assay [1] of 20.4 nM. The pIC50 in assay [2] was 7.55; in assay [3], 7.46.
For the compound `COc1ccc(Cl)cc1S(=O)(=O)NC(=O)c1cc2ccc(N(C)C)cc2o1` [Example 149, N-(5-chloro-2-methoxybenzene-1-sulfonyl)-6-(dimethylamino)-1-benzofuran-2-carboxamide], the EC50 with ZR-75-1 cells is 1.74e-07 M; in the assay on MDA-MB-436 cells, above 20000 nM. The same compound registered an IC50 in assay [1] of 138 nM. Besides, the values for the pIC50 in assay [2] and in assay [3] were 6.91 and 6.42, respectively.
In the same order, the values of `CN(C)c1ccc2cc(C(=O)NS(=O)(=O)c3ccccc3OCC(F)(F)F)oc2c1` [Example 74, 6-(Dimethylamino)-N-[2-(2,2,2-trifluoroethoxy)benzene-1-sulfonyl]-1-benzofuran-2-carboxamide] are 1.65e-07 M, above 20000 nM, 117 nM, 6.89 and 6.64.
On the same counts, the results for `CCOc1ncccc1S(=O)(=O)NC(=O)c1cc2ccc(N(C)C)cc2o1` [Example 81, 6-(Dimethylamino)-N-(2-ethoxypyridine-3-sulfonyl)-1-benzofuran-2-carboxamide] are 4.06e-07 M, above 20000 nM, 188 nM, 6.49 and 6.42.
On the same counts, the results for `CC(C)COc1ccccc1S(=O)(=O)NC(=O)c1cc2ccc(N(C)C)cc2o1` [Example 76, 6-(Dimethylamino)-N-[2-(2-methylpropoxy)benzene-1-sulfonyl]-1-benzofuran-2-carboxamide] are 1.95e-07 M, above 20000 nM, 146 nM, 7.05 and 6.72.
For the compound `COc1ccc(Cn2cccn2)cc1S(=O)(=O)NC(=O)c1cc2ccc(N(C)C)cc2o1` [Example 86, 6-(Dimethylamino)-N-{2-methoxy-5-[(1H-pyrazol-1-yl)methyl]benzene-1-sulfonyl}-1-benzofuran-2-carboxamide], the values for the EC50 in the assay on ZR-75-1 cells and with MDA-MB-436 cells were 1.57e-07 M and above 20000 nM, respectively. Moreover, the IC50 in assay [1] amounted to 235 nM. In addition, the pIC50 is 7.19 in assay [2] and 7.10 in assay [3].
In the same order, the values of `Cc1cc(N(C)C)cc2oc(C(=O)NS(=O)(=O)c3ccccc3-c3ccccc3)cc12` [Example 35, N-([1,1′-biphenyl]-2-sulfonyl)-6-(dimethylamino)-4-methyl-1-benzofuran-2-carboxamide] are 6.03e-06 M, above 20000 nM, 14900 nM, 6.34 and 6.18.
In the same order, the values of `CN(C)c1ccc2cc(C(=O)NS(=O)(=O)c3ccccc3Oc3ccccc3)oc2c1` [Example 85, 6-(Dimethylamino)-N-(2-phenoxybenzene-1-sulfonyl)-1-benzofuran-2-carboxamide] are 4e-07 M, above 20000 nM, 232 nM, 6.94 and 6.73.
In the same order, the values of `Cc1cnc2c(S(=O)(=O)NC(=O)c3cc4ccc(N(C)C)cc4o3)cccc2c1` [Example 87, 6-(Dimethylamino)-N-(3-methylquinoline-8-sulfonyl)-1-benzofuran-2-carboxamide] are 4.18e-07 M, above 20000 nM, 249 nM, 7.01 and 6.98.
Regarding `CCN(CC)c1ccc2cc(C(=O)NS(=O)(=O)c3ccccc3-c3ccccc3)oc2c1` [Example 38, N-([1,1′-Biphenyl]-2-sulfonyl)-6-(diethylamino)-1-benzofuran-2-carboxamide], the results for the EC50 in the assay on ZR-75-1 cells and in the assay with MDA-MB-436 cells were 1.45e-05 M and above 20000 nM, respectively. Also, inhibition in assay [1] was half-maximal at 4990 nM (IC50). In addition, the pIC50 in assay [2] is 6.01; in assay [3], 5.72.
On the same counts, the results for `CN(C)c1ccc2cc(C(=O)NS(=O)(=O)c3ccccc3OCCNC(=O)OC(C)(C)C)oc2c1` [Example 117, tert-butyl [2-(2-{[6-(dimethylamino)-1-benzofuran-2-carbonyl]sulfamoyl}phenoxy)ethyl]carbamate] are 6.03e-07 M, above 20000 nM, 276 nM, 6.53 and 6.47.
On the same counts, the results for `CC(=O)Nc1ccc2cc(C(=O)NS(=O)(=O)c3ccccc3-c3ccccc3)oc2c1` [Example 43, 6-Acetamido-N-([1,1′-biphenyl]-2-sulfonyl)-1-benzofuran-2-carboxamide] are above 2e-05 M, above 20000 nM, above 20000 nM, 5.29 and 4.99.
On the same counts, the results for `CN(C)c1ccc2cc(C(=O)NS(=O)(=O)c3cc(C(C)(C)C)ccc3OCC3CC3)oc2c1` [Example 180, N-((5-(tert-butyl)-2-(cyclopropylmethoxy)phenyl)sulfonyl)-6-(dimethylamino)benzofuran-2-carboxamide] are 3.77e-08 M, above 20000 nM, 22.9 nM, 8.36 and 7.67.
